The numbers were not newly measured in patent US20200206223A1, “LIQUID DOSAGE FORMS OF IMATINIB” (FTF PHARMA PRIVATE LIMITED, priority 2017, published 2020), which cites them from elsewhere.

In the case of `Cc1ccc(NC(=O)c2ccc(CN3CCNCC3)cc2)cc1Nc1nccc(-c2cccnc2)n1` [N-desmethyl derivative], for the setting “main circulating active metabolite”, the “Share of the AUC for Imatinib mesylate” value is “about 15%”. Moreover, under “orally administered imatinib mesylate”, the Elimination half-life was about 40 h.
